# From the METLIN SMRT retention time set (Domingo-Almenara et al. 2019)
# Assay: gradient 5% acetonitrile 3 min, to 50% in 2 min, to 85% in 15 min, held 3 min, 100 µL/min
# Conditions: column: Zorbax Extend-C18 2.1 x 50 mm; eluents: water / acetonitrile, 0.1% formic acid
# Summary of the method: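 Pure standards were analyzed in mixtures of ~100 molecules using HPLC coupled to a quadrupole time-of-flight mass spectrometer, in both positive and negative ionization mode. Separation used a Zorbax Extend-C18 column (2.1 × 50 mm, 1.8 μm) at 100 μL/min, with water and acetonitrile each containing 0.1% formic acid. Dead and dwell volumes were 40 μL and 900 μL, and data were collected over 3 months. Retention time was read from computationally picked adduct peaks, each inspected manually.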
row,SMILES,RP-LC retention time [s]
1,CC(O)(CCc1ccccc1)CNC(=O)C(=O)NCCC1=CCCCC1 (centres undefined),936
2,COc1ccc(-c2ccnn2-c2ccc(SCc3ccccc3F)nn2)cc1,1310
3,CN(Cc1ccccc1)C(=O)c1cn2ccncc2n1,678
4,CSc1ccc(-c2noc(CN3C(=O)C(C)Oc4ccccc43)n2)cc1 (centres undefined),1140
5,O=C(NC1CCN(Cc2ccccc2)CC1)C1CC(=O)N(CCc2ccccc2)C1 (centres undefined),600
6,CCCc1ccc(S(=O)(=O)N2CCC(OCc3noc(C4CCCO4)n3)CC2)cc1 (centres undefined),987
7,COCCCNC(=O)C1CCN(c2ccc(Sc3ccc(C(C)C)cc3)nn2)CC1,853
8,O=C(COc1ccc(Cl)cc1Cl)NCC1CCN(C(=O)Oc2ccccc2)CC1,987
9,CCN1CCn2cc(S(=O)(=O)NCc3ccccc3Cl)cc2C1=O,713
10,COc1ccccc1-c1cc(C(=O)N2CCN(c3cc(=O)n(C)c(=O)n3C)CC2)[nH]n1,665
11,Cc1c(Cl)cccc1NC(=O)N1CCC(OC2CCN(S(C)(=O)=O)CC2)CC1,743
12,COc1ccccc1-c1cc(C(F)(F)F)n2ncc(C(=O)OCCN3CCOCC3)c2n1,710
13,CC(Oc1ccccc1)C(=O)N1CCCn2nc(-c3cccs3)cc2C1 (centres undefined),844
14,Cc1nc2cccnc2n1CCN1CCN(C(=O)Nc2cccc(Cl)c2)CC1,604
15,CCCn1cc(S(=O)(=O)N2CCN(c3ccccc3Cl)CC2)c2cccnc21,1150
16,CCc1nnc(-c2cccnc2N2CCN(C(=O)Nc3cc(F)cc(F)c3)CC2)o1,850
17,O=C(Cn1cccc1-c1nc(-c2ccc3c(c2)OCO3)no1)Nc1ccc2c(c1)OCCO2,963
18,Cc1nc(-c2ccc3c(c2)n(CC(=O)NC2CCCC2)c(=O)n3C(C)C)no1,780
19,CCS(=O)(=O)N1CC(=O)N(c2ccccc2C)C(C)(C(=O)NCc2ccc(F)cc2)C1 (centres undefined),809
20,CC(C)(N)c1ncc(-c2ccc(OC(F)(F)F)cc2)[nH]1,693
21,O=C(CN1CCN(Cc2nc(-c3ccc(F)cc3)cs2)CC1)NCc1ccco1,595

row,SMILES,RP-LC retention time [s]
1,CC1(C)[C@@H]2CC[C@@]1(C(=O)O)C(=O)C2,717
2,CCc1noc(C2(NC(=O)c3cc(-c4ccccc4)n[nH]3)CCCCC2)n1,906
3,CCN(CC)S(=O)(=O)c1ccc2c(c1)N(CC(=O)NCc1ccc(C)cc1)C(=O)C1CCCCN21 (centres undefined),1030
4,CN(C)CCNC(=O)c1cccc(Nc2c(-c3ccc(Cl)cc3)nc3cnccn23)c1,611
5,CN1C(=O)Cc2cc(C(=O)NCc3ccccc3Cl)ccc21,738
6,CC(=O)N1CCCCCCNC(=O)[C@@H]2CCC[C@@H]21,624
7,CCn1cnc(S(=O)(=O)N2CCCC(C(=O)Nc3ccccc3F)C2)c1 (centres undefined),735
8,N#Cc1ccc(C(=O)N2CCCC2c2nc(-c3ccccc3)n[nH]2)cc1 (centres undefined),696
9,Cc1ccn2c(NC(=O)c3cccc(F)c3)c(-c3ccccc3)nc2c1,670
10,COc1ccc(-c2noc(C3CCCN3C(=O)c3ccco3)n2)cc1OC (centres undefined),780
11,CCc1ccc(CNC(=O)c2cccc(C3CCCN(C(=O)NC)C3)c2)cc1 (centres undefined),854
12,O=C(NCc1ccc2c(c1)OCO2)c1csc(NS(=O)(=O)c2cccs2)n1,721
13,Cc1cc(C)c2c(-n3cccc3)nn(CC(=O)NCCN(C)C)c2n1,630
14,O=C(CSc1ccc(N2CCN(c3ccc(F)cc3)CC2)nn1)NCc1ccco1,873
15,O=C(NCCc1nc2cccnc2n1-c1ccccc1)c1ccsc1,674
16,Cc1nc2ccccc2c(=O)n1Cc1noc(Cc2ccc(Br)cc2)n1,917
17,O=C1CN(C(=O)COc2cccc3ccccc23)c2ccccc2N1,861
18,CCOc1cccc(-c2noc(Cn3c(=O)n(CCCOC)c(=O)c4ccccc43)n2)c1,1040
19,CCc1nccn1Cc1nc(-c2ccc(Br)cc2)no1,677
20,O=C(NCCN1CCN(C(=O)Cn2ccc3ccccc32)CC1)c1cccs1,572
21,COc1ccc(-c2noc(C3CCCN3C(=O)c3ccc(OC)nc3)n2)cc1 (centres undefined),879

row,SMILES,RP-LC retention time [s]
1,Cc1ccc(-n2nnnc2CNS(=O)(=O)c2ccc(F)cc2F)cc1,792
2,c1cc(CN2CCCCC2c2nncn2CC2CC2)cs1 (centres undefined),559
3,O=C(CN1C(=O)c2ccccc2C1=O)Nc1nnc(C2COc3ccccc3O2)o1 (centres undefined),714
4,Cc1sc(NC(=O)CCn2c(=O)sc3ccccc32)nc1-c1ccc(Cl)cc1,1110
5,Cc1nnc(-c2nnc(NCc3ccccc3Cl)c3ccccc23)o1,909
6,Cc1c(C(=O)NCC2CC2)cnn1-c1ccc(-c2nc(C(C)(C)C)no2)cn1,1020
7,Cc1ccccc1CNC(=O)C1(C)CCN(S(=O)(=O)c2ccc(F)cc2)CC1,925
8,Cc1c(CC(=O)N2CCC(C(N)=O)CC2)c(=O)oc2cc3occ(C(C)(C)C)c3cc12,785
9,CSc1ccc(-c2noc(Cc3nnc(-c4ccc(C)c(C)c4)o3)n2)cc1,1190
10,CCc1csc(-c2ccc(N3CCN(C(=O)c4ccc(F)cc4)CC3)nc2)n1,921
11,Nc1cc(C2CCN(C(=O)c3cccc(Br)c3)CC2)no1,709
12,Cc1ccc(S(=O)(=O)NCc2c(-c3ccccc3)nc3sc(C)nn23)cc1,858
13,COc1ccc(NS(=O)(=O)c2cn(C(C)C)c3ncccc23)cc1OC,876
14,Cc1nn(-c2ccccc2)c2ccn(CC(=O)N3CCN(c4ccc(Cl)cc4)CC3)c(=O)c12,948
15,CN(C)S(=O)(=O)N1CCC2(CC1)CN(c1cccc(F)c1)C2c1ccccc1 (centres undefined),1250
16,Cc1ccc(-c2ncccc2CNC(=O)c2ccc3c(c2)OCO3)cc1,646
17,S=C(NCc1ccc2c(c1)OCO2)N1CCN(c2ncnc3c2oc2ccccc23)CC1,875
18,CCc1ccc(CNC(=O)C2CCN(C(=O)c3ncn4c3COC(c3ccccc3)C4)CC2)cc1 (centres undefined),756
19,O=[N+]([O-])c1c(NCCCO)cc(N2CCN(c3ccccn3)CC2)c2nonc12,584

# Now from value to compound:
row,RP-LC retention time [s],SMILES
1,755,O=C(Cn1ncc2c(c1=O)N(C1CC1)C(=O)CS2)NCCc1ccc(Cl)cc1
2,1180,Cc1cccc(-c2nc(Cn3nnc(C(=O)NCc4ccc(F)c(Cl)c4)c3C)c(C)o2)c1
3,664,COCCn1ccc2nc(C)c(C(=O)NCc3ccc4c(c3)OCO4)cc2c1=O
4,755,COc1ccc(C(C)NC(=O)c2cn3nc(Cl)ccc3n2)cc1OC (centres undefined)
5,622,CN(C)C(=O)c1n[nH]c2c1CN(C(=O)c1ccc(F)cc1)CC2
6,680,CC(C)n1cnc2cc(CNC(=O)Cc3cccc(C(F)(F)F)c3)ccc21
7,755,COc1ccccc1CNC(=O)C1CCc2nc(N3CCCCC3)ncc2C1 (centres undefined)
8,686,Cc1cc2[nH]c(C(=O)Nc3ccccc3F)c(CN3CCOCC3)c2s1
9,886,COc1ccc(-c2nc3cnccn3c2Nc2ccccc2C)cc1
10,1200,COc1cccc(Cn2c(=O)c3sccc3n(Cc3nc(-c4ccc(C)c(C)c4)no3)c2=O)c1
11,731,O=C(O)c1cccc2c1CCN2C(=O)c1ccccc1
12,645,CCOC(=O)CC(NC(=O)NCc1ccnc(N2CCCCC2)c1)c1ccccc1 (centres undefined)
13,780,Cn1nc(-c2nc(-c3ccccc3)no2)c2c1CCN(C(=O)NC(C)(C)C)C2
14,962,COc1ccc(Br)cc1S(=O)(=O)NCCc1ccccc1
15,947,COc1ccc(C(O)Cn2ccn3nc(-c4ccc(C)c(C)c4)cc3c2=O)cc1 (centres undefined)
16,626,CCCNC(=O)C1CC(=O)N(c2n[nH]c3cccc(F)c23)C1 (centres undefined)
17,715,O=C(C1CCCN(c2cnc3nccnc3c2)C1)N1CCN(c2ccccc2)CC1 (centres undefined)
18,608,CC1CCN(CCCNC(=O)c2nnc(-c3ccc(S(=O)(=O)N4CCOCC4)cc3)o2)CC1
19,866,O=C(Cn1nc(N2CCOCC2)c2ccccc2c1=O)Nc1ccc(Cl)cc1F
20,815,Cc1ccc(CC(=O)NC2CCN(c3nnc4ccc(C(F)(F)F)cn34)CC2)cc1
21,775,CCN1CCN(c2ccc(NC(=O)c3ccc(Cl)cc3)cn2)C1=O
22,925,CCOc1ccc(CC(=O)N2CCCC2c2nc(-c3ccc(OC)c(OC)c3)no2)cc1OCC (centres undefined)
23,649,Cc1nnc(CNC(=O)c2cc(-c3ccc(F)cc3)c[nH]2)o1
24,1180,O=S(=O)(c1cc(Cl)ccc1Cl)N1CCc2nc(-c3ccccc3)ncc2C1
25,641,CC(C)S(=O)(=O)c1ccc(Cc2nnc(NC(=O)c3ccc4ncsc4c3)o2)cc1
26,837,CCOc1ccc(C(=O)N2CCc3c(c(-c4nc(C5CC5)no4)nn3C)C2)cc1
27,763,CC(=O)c1ccc(NC(=O)Cn2c(=O)n(-c3ccc(F)cc3)c(=O)c3c2cc(C)n3C)cc1
28,738,Clc1ccc(-c2ccc(CNCC3CCCO3)o2)c(Cl)c1 (centres undefined)
